These results are taken from ChEMBL document CHEMBL1201862, “PubChem BioAssay data set” (2004).

Test [1] concerns the target Peroxisome proliferator-activated receptor gamma/Nuclear receptor coactivator 3 (Homo sapiens, UniProt P37231). Put plainly: TR-FRET dose response biochemical High Throughput Screening assay for agonists of the steroid receptor coactivator 3 (SRC-3) recruitment by the peroxisome proliferator-activated receptor gamma (PPAR gamma): non-selective agonists. [Related pubchem assays: 1301 (Confirmation screen.), 1048 (Primary screen.)]. The test is classed as functional.

Test [2] has as its target Peroxisome proliferator-activated receptor gamma/Nuclear receptor coactivator 1 (Homo sapiens, UniProt P37231). Put plainly: TR-FRET dose response biochemical High Throughput Screening assay for agonists of the steroid receptor coactivator 1 (SRC-1) recruitment by the peroxisome proliferator-activated receptor gamma (PPAR gamma): non-selective agonists. [Related pubchem assays (depositor defined):AID1300, AID1808, AID504735, AID631]. The test is classed as protein assay. On the technique in general: In TR-FRET formats the signal depends on donor and acceptor labels being close together.

The target of test [3] is Peroxisome proliferator-activated receptor gamma/Nuclear receptor coactivator 2 (Homo sapiens, UniProt P37231). Put plainly: TR-FRET dose response biochemical High Throughput Screening assay for agonists of the steroid receptor coactivator 2 (SRC-2) recruitment by the peroxisome proliferator-activated receptor gamma (PPAR gamma): non-selective agonists. [Related pubchem assays: 1297, 1032 ]. The test is classed as functional.

The test system of test [4] is Vero. Put plainly: cells. It counts as functional. Conditions: Chlorocebus sabaeus.
In test [5] the test system is Vero. Put plainly: cells. Conditions: Chlorocebus sabaeus. The test is classed as functional, cell-based.
For another test, the target named is Cytochrome P450 3A4 (Homo sapiens, UniProt P08684).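 Further: CYP3A4 tested as one member of a cytochrome P450 panel screen.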
Sequence of Cytochrome P450 3A4 (P08684 whole entry): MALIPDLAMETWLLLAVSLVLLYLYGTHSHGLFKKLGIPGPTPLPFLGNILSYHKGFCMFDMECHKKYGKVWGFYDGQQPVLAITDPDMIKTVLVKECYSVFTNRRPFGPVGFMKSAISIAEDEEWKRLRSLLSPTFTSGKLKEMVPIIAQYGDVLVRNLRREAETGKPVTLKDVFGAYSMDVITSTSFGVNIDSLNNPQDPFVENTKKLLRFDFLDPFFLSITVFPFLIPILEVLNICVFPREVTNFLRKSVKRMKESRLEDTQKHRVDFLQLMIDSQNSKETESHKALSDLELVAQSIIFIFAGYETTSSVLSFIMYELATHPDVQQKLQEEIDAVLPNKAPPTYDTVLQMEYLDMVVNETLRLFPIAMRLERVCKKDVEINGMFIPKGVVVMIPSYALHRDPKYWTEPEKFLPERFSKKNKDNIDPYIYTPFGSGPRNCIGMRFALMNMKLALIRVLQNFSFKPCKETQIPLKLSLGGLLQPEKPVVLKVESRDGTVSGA
The next test concerns INS1. Put plainly: beta cell apoptosis inhibitors, cytokine rescue, dose response, luminescence, retest (AID 449756).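 Further: cell death triggered by IL-1 beta plus TNF-alpha plus IFN-gamma mixture; protective hits raise ATP signal compared with cytokine alone wells.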 It counts as functional, cell-based. The settings on record: Rattus norvegicus, INS1.
Test [6] addresses T1, Apoptotic protease-activating factor 1 (Homo sapiens, UniProt O14727).
T1 sequence (O14727 whole entry): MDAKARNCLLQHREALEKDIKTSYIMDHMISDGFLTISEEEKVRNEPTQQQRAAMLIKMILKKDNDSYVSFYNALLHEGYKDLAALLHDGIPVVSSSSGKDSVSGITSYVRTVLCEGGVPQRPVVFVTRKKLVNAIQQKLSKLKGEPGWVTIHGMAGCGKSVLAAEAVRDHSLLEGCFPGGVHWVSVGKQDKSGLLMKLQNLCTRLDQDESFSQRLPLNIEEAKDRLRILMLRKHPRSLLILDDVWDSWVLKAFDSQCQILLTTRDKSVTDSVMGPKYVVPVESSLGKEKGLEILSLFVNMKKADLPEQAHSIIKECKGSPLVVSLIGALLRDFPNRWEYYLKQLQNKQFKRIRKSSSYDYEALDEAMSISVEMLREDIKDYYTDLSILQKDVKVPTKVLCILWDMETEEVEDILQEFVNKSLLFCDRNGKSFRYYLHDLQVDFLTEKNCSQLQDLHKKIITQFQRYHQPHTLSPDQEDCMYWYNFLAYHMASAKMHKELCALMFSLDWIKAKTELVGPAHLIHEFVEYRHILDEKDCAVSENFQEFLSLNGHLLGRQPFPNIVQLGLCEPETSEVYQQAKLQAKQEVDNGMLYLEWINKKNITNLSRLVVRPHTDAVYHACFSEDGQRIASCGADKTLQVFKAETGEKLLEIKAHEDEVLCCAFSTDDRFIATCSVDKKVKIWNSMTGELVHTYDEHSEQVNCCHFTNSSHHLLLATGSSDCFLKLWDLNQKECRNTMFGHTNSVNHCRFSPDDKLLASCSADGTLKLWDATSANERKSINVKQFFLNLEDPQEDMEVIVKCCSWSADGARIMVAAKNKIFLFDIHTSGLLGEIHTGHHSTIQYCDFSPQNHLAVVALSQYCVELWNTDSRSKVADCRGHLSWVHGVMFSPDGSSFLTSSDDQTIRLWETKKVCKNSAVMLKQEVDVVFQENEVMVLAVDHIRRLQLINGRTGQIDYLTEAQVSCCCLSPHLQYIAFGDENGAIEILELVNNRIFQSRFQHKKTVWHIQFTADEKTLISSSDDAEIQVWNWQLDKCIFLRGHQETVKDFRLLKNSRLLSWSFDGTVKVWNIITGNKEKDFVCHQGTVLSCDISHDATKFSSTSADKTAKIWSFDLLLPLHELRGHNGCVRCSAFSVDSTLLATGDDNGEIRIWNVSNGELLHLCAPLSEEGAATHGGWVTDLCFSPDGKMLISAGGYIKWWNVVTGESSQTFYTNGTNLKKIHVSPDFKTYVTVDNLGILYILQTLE
It counts as functional.

The test system of test [7] is Vero. Put plainly: Vero cell cytotoxicity, cytotoxicity control for flavivirus capping enzyme inhibitors (AID 588742). It counts as functional. The settings on record: Chlorocebus sabaeus.
The next test can be described thus: cells. The test is classed as functional, cell-based. The settings on record: HEK-CNG.
A further test has as its target T2, Galanin receptor type 3 (Homo sapiens, UniProt O60755).
T2 sequence (O60755 whole entry): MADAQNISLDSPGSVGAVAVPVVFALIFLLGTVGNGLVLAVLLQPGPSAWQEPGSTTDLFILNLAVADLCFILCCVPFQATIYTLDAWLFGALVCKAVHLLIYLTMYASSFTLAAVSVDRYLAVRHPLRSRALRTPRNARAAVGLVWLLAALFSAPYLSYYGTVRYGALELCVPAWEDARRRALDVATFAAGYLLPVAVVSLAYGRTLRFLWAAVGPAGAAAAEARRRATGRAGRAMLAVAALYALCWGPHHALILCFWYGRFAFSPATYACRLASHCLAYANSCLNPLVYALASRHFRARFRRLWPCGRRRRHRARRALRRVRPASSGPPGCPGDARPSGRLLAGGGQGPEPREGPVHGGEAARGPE
Put plainly: Fluorescence-based cell-based primary high throughput dose response assay to identify antagonists of the Galanin Receptor 3 (GalR3). It counts as functional.

For the next test, the target named is T3, Bcl-2-related protein A1 (Mus musculus, UniProt Q07440).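 Further: confirmatory dose–response counterscreen on Bfl-1, used to check hits from a UBC13 polyubiquitin inhibitor campaign.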
T3 sequence (Q07440 whole entry): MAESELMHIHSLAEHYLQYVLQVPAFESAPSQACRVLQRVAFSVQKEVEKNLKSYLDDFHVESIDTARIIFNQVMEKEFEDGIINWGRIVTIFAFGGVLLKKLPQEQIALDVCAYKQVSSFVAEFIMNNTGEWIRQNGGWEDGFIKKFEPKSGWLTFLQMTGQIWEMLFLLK
It counts as functional.

For test [8], the target named is T4, Ubiquitin-conjugating enzyme E2 N (Homo sapiens, UniProt P61088).
T4 sequence (P61088 whole entry): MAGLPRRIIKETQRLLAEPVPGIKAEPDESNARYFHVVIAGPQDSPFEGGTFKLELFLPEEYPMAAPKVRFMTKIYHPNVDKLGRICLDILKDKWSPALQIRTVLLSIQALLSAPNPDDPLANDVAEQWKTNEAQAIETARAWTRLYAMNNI
The test is classed as functional.

In test [9] the target is T4, Ubiquitin-conjugating enzyme E2 N. It counts as functional. This is another data set of the same source.
Test [10] concerns the target T5, Endoribonuclease toxin MazF (Escherichia coli K-12, UniProt P0AE70).
T5 sequence (P0AE70 whole entry): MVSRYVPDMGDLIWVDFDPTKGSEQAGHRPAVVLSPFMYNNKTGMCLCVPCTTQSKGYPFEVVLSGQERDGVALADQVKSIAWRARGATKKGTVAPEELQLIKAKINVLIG
Put plainly: MazF toxin RNase activators, dose response, biochemical, fluorescence, single-stranded RNA substrate, uHTS hits (AID 588481). It counts as functional.

The target of test [11] is T5, Endoribonuclease toxin MazF. Put plainly: fluorescent RNA oligo signal without MazF, dose response, counter-screen for MazEF activator project, biochemical, fluorescence, single-stranded RNase substrate (AID 588502). It counts as functional.

Active and inactive are the calls of the source.

Sequence of Peroxisome proliferator-activated receptor gamma/Nuclear receptor coactivator 3 (P37231 whole entry): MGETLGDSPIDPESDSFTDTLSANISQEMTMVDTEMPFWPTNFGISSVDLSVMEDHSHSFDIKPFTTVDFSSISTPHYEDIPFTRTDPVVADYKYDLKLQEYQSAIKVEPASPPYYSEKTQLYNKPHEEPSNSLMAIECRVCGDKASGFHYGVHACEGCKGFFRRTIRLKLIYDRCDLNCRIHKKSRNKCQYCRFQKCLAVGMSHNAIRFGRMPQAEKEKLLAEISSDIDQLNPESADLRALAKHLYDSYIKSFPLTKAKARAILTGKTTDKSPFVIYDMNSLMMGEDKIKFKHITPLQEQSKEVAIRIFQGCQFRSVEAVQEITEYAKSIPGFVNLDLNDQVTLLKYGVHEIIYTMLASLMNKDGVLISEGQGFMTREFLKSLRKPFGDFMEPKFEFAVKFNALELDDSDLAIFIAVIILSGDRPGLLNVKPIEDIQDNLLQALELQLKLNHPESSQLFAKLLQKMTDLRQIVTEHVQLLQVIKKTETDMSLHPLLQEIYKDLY
Sequence of Peroxisome proliferator-activated receptor gamma/Nuclear receptor coactivator 3 (Q9Y6Q9 whole entry, further chain): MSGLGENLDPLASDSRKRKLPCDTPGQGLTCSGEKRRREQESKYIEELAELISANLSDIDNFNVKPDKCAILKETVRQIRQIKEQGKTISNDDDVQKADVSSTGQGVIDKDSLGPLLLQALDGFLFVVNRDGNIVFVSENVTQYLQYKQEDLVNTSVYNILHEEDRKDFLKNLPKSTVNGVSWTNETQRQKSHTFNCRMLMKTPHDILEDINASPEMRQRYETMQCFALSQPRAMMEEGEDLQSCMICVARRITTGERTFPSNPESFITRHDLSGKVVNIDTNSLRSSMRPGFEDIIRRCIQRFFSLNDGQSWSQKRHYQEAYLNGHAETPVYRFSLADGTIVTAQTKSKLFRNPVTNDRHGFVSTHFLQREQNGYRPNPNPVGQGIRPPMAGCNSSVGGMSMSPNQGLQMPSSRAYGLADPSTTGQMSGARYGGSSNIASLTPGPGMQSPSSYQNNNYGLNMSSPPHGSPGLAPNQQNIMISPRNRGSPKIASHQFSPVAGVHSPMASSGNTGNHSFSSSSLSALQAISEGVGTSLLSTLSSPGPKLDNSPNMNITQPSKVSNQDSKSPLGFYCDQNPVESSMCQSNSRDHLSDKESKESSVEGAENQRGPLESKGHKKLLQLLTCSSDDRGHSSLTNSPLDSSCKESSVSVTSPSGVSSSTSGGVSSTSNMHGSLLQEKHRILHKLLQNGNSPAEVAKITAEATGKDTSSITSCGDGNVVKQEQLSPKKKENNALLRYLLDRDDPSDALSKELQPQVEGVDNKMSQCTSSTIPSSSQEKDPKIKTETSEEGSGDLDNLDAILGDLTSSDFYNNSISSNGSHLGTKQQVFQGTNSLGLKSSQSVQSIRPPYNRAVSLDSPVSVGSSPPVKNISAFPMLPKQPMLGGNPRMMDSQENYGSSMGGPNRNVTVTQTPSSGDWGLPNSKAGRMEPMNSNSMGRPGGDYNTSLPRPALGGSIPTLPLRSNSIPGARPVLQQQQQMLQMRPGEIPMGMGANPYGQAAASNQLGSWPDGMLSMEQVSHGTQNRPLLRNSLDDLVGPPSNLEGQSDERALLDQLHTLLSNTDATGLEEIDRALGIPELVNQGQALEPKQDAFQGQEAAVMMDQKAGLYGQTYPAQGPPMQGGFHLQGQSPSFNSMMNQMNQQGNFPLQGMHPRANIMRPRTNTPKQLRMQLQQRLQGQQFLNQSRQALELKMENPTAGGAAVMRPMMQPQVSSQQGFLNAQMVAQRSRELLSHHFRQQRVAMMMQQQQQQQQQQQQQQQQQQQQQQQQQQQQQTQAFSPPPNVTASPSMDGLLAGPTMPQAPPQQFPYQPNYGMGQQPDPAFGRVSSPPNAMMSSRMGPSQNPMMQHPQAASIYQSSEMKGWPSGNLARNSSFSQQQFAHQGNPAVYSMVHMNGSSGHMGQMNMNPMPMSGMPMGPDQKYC
Sequence of Peroxisome proliferator-activated receptor gamma/Nuclear receptor coactivator 1 (P37231 whole entry): as the sequence (P37231 whole entry) above
Sequence of Peroxisome proliferator-activated receptor gamma/Nuclear receptor coactivator 1 (Q15788 whole entry, further chain): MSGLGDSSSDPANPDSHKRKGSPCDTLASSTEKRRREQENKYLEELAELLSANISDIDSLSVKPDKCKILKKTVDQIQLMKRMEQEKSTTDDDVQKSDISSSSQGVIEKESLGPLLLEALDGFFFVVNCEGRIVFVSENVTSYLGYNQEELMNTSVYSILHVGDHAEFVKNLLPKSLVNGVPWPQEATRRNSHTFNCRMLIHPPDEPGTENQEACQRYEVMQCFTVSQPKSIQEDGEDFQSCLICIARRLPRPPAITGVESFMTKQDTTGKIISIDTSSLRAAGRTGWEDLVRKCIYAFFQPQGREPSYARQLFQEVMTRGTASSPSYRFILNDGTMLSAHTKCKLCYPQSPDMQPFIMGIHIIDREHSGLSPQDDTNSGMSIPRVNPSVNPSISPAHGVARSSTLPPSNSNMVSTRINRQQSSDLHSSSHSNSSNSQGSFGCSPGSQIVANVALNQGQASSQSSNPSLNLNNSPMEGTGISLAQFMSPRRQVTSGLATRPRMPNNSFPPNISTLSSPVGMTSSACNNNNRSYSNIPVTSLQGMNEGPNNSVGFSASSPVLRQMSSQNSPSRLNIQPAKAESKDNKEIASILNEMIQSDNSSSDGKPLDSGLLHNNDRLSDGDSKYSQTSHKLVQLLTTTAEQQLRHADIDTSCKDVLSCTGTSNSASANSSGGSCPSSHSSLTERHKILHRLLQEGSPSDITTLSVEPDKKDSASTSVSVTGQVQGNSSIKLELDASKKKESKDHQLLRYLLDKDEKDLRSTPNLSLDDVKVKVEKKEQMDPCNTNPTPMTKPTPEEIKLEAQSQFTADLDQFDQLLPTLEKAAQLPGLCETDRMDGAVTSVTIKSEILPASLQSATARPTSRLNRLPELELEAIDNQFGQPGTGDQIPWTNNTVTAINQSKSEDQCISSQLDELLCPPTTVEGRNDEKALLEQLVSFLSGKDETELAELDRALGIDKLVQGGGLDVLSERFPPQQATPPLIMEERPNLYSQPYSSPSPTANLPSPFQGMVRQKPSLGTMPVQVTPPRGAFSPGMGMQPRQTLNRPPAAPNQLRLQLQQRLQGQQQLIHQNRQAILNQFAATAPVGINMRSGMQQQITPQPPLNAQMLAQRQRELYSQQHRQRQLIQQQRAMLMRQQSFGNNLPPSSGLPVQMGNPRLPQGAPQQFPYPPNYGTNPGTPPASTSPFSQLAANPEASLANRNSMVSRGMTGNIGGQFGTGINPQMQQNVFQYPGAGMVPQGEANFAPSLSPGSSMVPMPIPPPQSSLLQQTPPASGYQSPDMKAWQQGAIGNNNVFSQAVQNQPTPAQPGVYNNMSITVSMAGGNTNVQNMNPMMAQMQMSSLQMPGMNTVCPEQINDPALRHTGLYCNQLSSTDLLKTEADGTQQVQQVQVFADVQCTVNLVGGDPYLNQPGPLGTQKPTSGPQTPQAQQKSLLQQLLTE

As to `CC(C)Sc1oc(-c2ccco2)nc1S(=O)(=O)c1ccccc1`, the EC50 (usually the midpoint of the concentration-response curve) is > 79.4 µM (not active) in test [1], 6.48 µM (active) in test [2] and 9.32 µM (active) in test [3].

For `COc1cccc(-c2ccc(NC(=O)C3CCCN(Cc4cnc(C)n4C)C3)cc2)c1` (stereo not drawn), the CC50 (as a rule, the concentration giving 50% cytotoxicity) in the test with Vero [4] is > 25 µM (active). Moreover, the 50% inhibitory concentration (IC50) – broadly, the point on the concentration scale where inhibition reaches its midpoint – in the test with Vero [5] is 20.3 µM (active).

Consider `O=c1c(Cl)c(N2CCN(S(=O)(=O)c3ccc(F)cc3)CC2)cnn1-c1cccc(Cl)c1`, for which the results for the EC50 in test [1], in test [2] and in [3] were 18.7 µM (not active), 9.63 µM (active) and 9.06 µM (active), respectively. Moreover, the AC50 (commonly the midpoint of the concentration-response curve, whichever way the signal moves) on Cytochrome P450 3A4 is 20 µM (inconclusive).

As for `ClCc1csc(-c2ccccc2Cl)n1`, the values for the 50% effective concentration (EC50) in [1], in test [2] and in test [3] were > 79.4 µM (not active), > 79.4 µM (inactive) and > 79.4 µM (not active), respectively.

Turning to `CCN1CCN(C2=C(NS(=O)(=O)c3ccccc3)C(=O)c3ccccc3C2=O)CC1`, in the test on INS1, the concentration at half-maximal activity (AC50) is 5.62 µM (active). Further, the IC50 in test [6] is 19.1 µM (active). In the test on Vero [7], the CC50 is 24.8 µM (active).

On to `O=C(NCC1CCN(Cc2ccc(Cl)cc2)CC1)C1CCCN(c2ncnc3c2nc2n3CCCCC2)C1` (stereo not drawn), for which, in “cells”, the EC50 is > 29.9 µM (inactive). Besides, the IC50 on Galanin receptor type 3 was > 29.9 µM (inactive); on Bcl-2-related protein A1, > 20 µM (inactive); in [8], 8.14 µM (active); in [9], 7.67 µM (active).

Turning to `CCCn1c(SCC(=O)Nc2nc3ccccc3s2)nc2c1c(=O)n(C)c(=O)n2C`, the EC50 in test [10] and in test [11] was > 99 µM (inactive) each time.

With `N#C/C(=C/C1=C(N2CCOCC2)C(=C/c2cccc([N+](=O)[O-])c2)/CC1)C(=O)Nc1ccccc1F`, the EC50 in test [10] and in [11] was > 99 µM (inactive) each time.

Take `Cc1ccc(N(Cc2ccccc2)C(=O)CSC(C)C(=O)Nc2cc(C)on2)cc1` (stereo not drawn): the CC50 with Vero [4] was 23.3 µM (active). The half-maximal inhibitory concentration (IC50) with Vero [5] was 15.6 µM (active).

`Cn1ncc(/N=C/c2c(O)ccc3ccccc23)c1C(=O)Nc1cccc(Cl)c1`: the EC50 in test [10] is 26.2 µM (inactive); in test [11], 94.5 µM (inactive).
